We go through 21 compounds from patent US9271971B2, “Pyrido[3,4-B]indoles and methods of use” (Medivation Technologies, Inc., priority 2009, dated 2016).

Each structure is given as a SMILES string.

Assay [1] deals with T1, human recombinant adrenergic α2B receptor (Homo sapiens, UniProt P18089).
T1 construct: expressed in transfected cells; host or cells: Chinese hamster ovary (CHO-K1) cells
T1 sequence (P18089 1-450): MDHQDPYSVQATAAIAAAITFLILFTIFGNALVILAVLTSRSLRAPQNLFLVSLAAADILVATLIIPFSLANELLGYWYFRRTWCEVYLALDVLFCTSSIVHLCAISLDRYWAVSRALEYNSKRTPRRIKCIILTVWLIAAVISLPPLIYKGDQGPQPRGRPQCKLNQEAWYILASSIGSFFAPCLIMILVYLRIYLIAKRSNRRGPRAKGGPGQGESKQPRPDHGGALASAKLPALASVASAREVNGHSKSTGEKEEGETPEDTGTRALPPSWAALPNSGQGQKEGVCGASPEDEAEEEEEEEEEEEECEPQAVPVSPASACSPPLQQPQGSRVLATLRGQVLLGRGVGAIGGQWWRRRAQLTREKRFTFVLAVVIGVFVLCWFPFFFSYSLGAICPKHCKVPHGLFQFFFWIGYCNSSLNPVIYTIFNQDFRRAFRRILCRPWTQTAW
Briefly: Adrenergic α2B radioligand binding assay. The settings on record: 1 μM; [3H]Rauwolscine specific binding; read-out: Percent Inhibition of ligand binding, Adrenergic (1 μM ligand conc.) α2B. As for the experimental part:
To evaluate in radioligand binding assays the activity of compounds of the invention, human recombinant adrenergic α2B receptor expressed in Chinese hamster ovary (CHO-K1) cells [Uhlen, S et al., Eur J Pharmacol. (1998), 343(1):93] in a modified Tris-HCl buffer (50 mM Tris-HCl, pH 7.4, 12.5 mM MgCl2, 1 mM EDTA, 0.2% BSA) was used. Compounds of the invention were incubated with 2.5 nM [^3H]Rauwolscine for 60 min. at 25° C. Non-specific binding was estimated in the presence of 10 μM Prozosin. Receptor proteins were filtered and washed, the filters were then counted to determine [^3H]Rauwolscine specifically bound. Compounds were screened at 1 μM or lower, using 1% DMSO as vehicle. Compounds of the invention were tested in this biochemical assay. Biochemical assay results for representative compounds were presented as the percent inhibition of specific binding in Table 3.

In assay [2] the target is T2, human recombinant serotonin (5-Hydroxytryptamine) 5-HT2C receptor (Homo sapiens, UniProt P28335).
T2 construct: expressed in transfected cells; host or cells: Chinese hamster ovary (CHO-K1) cells
T2 sequence (P28335 33-458): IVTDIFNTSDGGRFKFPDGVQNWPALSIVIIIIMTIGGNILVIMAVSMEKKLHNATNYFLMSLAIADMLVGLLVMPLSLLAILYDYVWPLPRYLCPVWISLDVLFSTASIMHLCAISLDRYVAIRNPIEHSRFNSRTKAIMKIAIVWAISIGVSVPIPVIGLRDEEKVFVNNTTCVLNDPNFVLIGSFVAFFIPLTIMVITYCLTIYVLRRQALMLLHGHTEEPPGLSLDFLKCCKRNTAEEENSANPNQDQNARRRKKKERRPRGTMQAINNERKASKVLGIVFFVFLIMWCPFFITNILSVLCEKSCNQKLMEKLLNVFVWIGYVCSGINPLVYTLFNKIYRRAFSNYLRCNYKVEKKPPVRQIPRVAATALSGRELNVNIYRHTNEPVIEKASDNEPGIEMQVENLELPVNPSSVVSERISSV
Briefly: Serotonin 5-HT2C radioligand binding assay. The note with it: [3H]Mesulergine specific binding, read-out: Percent Inhibition of ligand binding, Serotonin (1 μM ligand concentration) 5-HT2C. As for the experimental part: To evaluate in radioligand binding assays the activity of compounds of the invention, human recombinant serotonin (5-Hydroxytryptamine) 5-HT2C receptor expressed in Chinese hamster ovary (CHO-K1) cells [Wolf, W. A. et al., J. Neurochem. (1997), 69:1449] in a modified Tris-HCl buffer (50 mM Tris-HCl, pH 7.4, 0.1% Ascorbic Acid, 10 μM Pargyline) was used. Compounds of the invention were incubated with 1 nM [^3H]Mesulergine for 60 min. at 25° C. Non-specific binding was estimated in the presence of 1 μM Mianserin. Receptor proteins were filtered and washed, the filters were then counted to determine [^3H]Mesulergine specifically bound. Compounds were screened at 1 μM or lower, using 1% DMSO as vehicle. Biochemical assay results are presented as the percent inhibition of specific binding in Table 4.

Assay [3] has as its target human recombinant histamine H1 receptor (Homo sapiens, UniProt P35367). Description: Histamine H1 radioligand binding assay. The settings on record: [3H]Pyrilamine specific binding; for inhibition at 1 µM: read-out: Percentage Inhibition, Histamine Binding (1 μM) H1. The protocol:
To evaluate in radioligand binding assays the activity of compounds of the invention, human recombinant histamine H1 receptor expressed in Chinese hamster ovary (CHO) cells [De Backer, M. D. et al., Biochem. Biophys. Res. Comm. (1993), 197(3):1601] in a modified Tris-HCl buffer (50 mM Tris-HCl, pH 7.4, 2 mM MgCl2, 100 mM NaCl, 250 mM Sucrose) was used. Compounds of the invention were incubated with 1.2 nM [^3H]Pyrilamine for 180 min. at 25° C. Non-specific binding was estimated in the presence of 1 μM pyrilamine. Receptor proteins were filtered and washed, the filters were then counted to determine [^3H]Pyrilamine specifically bound. Compounds were screened at 1 μM or lower, using 1% DMSO as vehicle. Biochemical assay results are presented as the percent inhibition of specific binding in Table 2.

The target in assay [4] is human recombinant dopamine D2L receptor (Homo sapiens, UniProt P14416). Description: Dopamine D2L radioligand binding assay. The settings on record: [3H]Spiperone specific binding; for inhibition at 1 µM: read-out: Percent Inhibition of ligand binding, Dopamine (1 μM ligand conc.) D2L. The protocol: To evaluate in radioligand binding assays the activity of compounds of the invention, human recombinant dopamine D2L receptor expressed in Chinese hamster ovary (CHO) cells [Grandy, D. K. et al. Proc. Natl. Acad. Sci. USA. (1989), 86:9762; Hayes, G. et al., Mol. Endocrinol. (1992), 6:920] in a modified Tris-HCl buffer (50 mM Tris-HCl, pH 7.4, 1.4 mM Ascorbic Acid, 0.001% BSA, 150 mM NaCl) was used. Compounds of the invention were incubated with 0.16 nM [^3H]Spiperone for 120 min. at 25° C. Non-specific binding was estimated in the presence of 10 μM Haloperidol. Receptor proteins were filtered and washed, the filters were then counted to determine [^3H]Spiperone specifically bound. Compounds were screened at 1 μM or lower, using 1% DMSO as vehicle. Biochemical assay results are presented as the percent inhibition of specific binding in Table 3.
Chain of human recombinant dopamine D2L receptor (P14416 whole entry): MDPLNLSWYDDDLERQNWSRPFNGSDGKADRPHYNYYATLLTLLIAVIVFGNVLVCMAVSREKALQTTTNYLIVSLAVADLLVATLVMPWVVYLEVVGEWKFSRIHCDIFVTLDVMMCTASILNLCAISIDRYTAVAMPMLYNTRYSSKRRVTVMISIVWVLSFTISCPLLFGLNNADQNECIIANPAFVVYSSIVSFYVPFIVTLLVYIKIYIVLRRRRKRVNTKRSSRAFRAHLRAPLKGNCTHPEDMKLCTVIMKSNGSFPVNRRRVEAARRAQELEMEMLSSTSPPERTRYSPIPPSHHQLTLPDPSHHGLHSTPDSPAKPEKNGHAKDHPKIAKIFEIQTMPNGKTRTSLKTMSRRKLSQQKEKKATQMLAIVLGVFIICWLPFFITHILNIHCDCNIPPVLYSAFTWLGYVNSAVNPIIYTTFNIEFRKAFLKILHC

Chain of human recombinant histamine H1 receptor (P35367 whole entry): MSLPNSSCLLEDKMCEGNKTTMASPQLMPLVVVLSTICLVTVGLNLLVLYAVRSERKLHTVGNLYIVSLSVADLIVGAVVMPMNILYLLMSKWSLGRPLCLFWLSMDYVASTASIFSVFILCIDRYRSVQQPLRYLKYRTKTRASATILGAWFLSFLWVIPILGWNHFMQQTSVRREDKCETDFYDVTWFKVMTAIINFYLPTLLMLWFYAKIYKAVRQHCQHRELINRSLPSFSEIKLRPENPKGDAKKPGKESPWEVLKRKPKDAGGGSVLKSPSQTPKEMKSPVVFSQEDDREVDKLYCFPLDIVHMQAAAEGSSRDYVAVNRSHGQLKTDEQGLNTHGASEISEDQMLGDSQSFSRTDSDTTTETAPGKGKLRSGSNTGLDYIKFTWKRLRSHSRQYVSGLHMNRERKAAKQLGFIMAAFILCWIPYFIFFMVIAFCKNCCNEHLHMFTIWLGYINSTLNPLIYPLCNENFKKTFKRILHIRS

Consider `COc1ccc(C(O)Cn2c3c(c4cc(C)ccc42)C2CCN(C3)C2)cc1F` (centres unmarked) [Compound 6], for which the inhibition at 1 µM in assay [1] is 73%; in assay [2] it was 43%; in assay [3], 86%; in assay [4], -1%.
The corresponding values for `Cc1ccc2c(c1)c1c(n2CC(C)(O)c2ccc(F)c(F)c2)CN2CCC1C2` (centres unmarked) [Compound 15] are 106%, 87%, 82% and 0%.
The matching figures for `Cc1ccc(C(C)(O)Cn2c3c(c4cc(C)ccc42)C2CCN(C3)C2)cc1` (centres unmarked) [Compound 20]: 97%, 94%, 21% and 9%.
`Cc1ccc2c(c1)c1c(n2CCc2nc(-c3ccccc3)cs2)CN2CCC1C2` (centres unmarked) [Compound 19]: the inhibition at 1 µM was 61% in assay [1], 23% in assay [2], 82% in assay [3] and -2% in assay [4].
The matching figures for `Cc1ccc2c(c1)c1c(n2CC(C)(O)c2ccc(F)cc2F)CN2CCC1C2` (centres unmarked) [Compound 17]: 90%, 92%, 16% and 5%.
The matching figures for `Cc1ccc2c(c1)c1c(n2CC(=O)N2CCNCC2)CN2CCC1C2` (centres unmarked) [Compound 24]: -4%, 5%, 5% and -8%.
The corresponding values for `Cc1ccc2c(c1)c1c(n2CCc2ccc(C)nc2)CN2CCC1C2` (centres unmarked) [Compound 12] are 16%, 5%, 59% and 0%.
For `Cc1ccc2c(c1)c1c(n2CC(=O)N(C)C)CN2CCC1C2` (centres unmarked) [Compound 27], the inhibition at 1 µM in assay [1] was -15%; in assay [2], -1%; in assay [3] it was 10%; in assay [4], 11%.
In the case of `Cc1ccc(/C=C/n2c3c(c4cc(C)ccc42)C2CCN(C3)C2)cc1` (centres unmarked) [Compound 10], the inhibition at 1 µM in assay [1] stood at 66%; in assay [2], 9%; in assay [3], 70%; in assay [4], 18%.
The matching figures for `Cc1ccc2c(c1)c1c(n2CC(O)c2ccccc2)CN2CCC1C2` (centres unmarked) [Compound 4]: 89%, 31%, 67% and 3%.
With `C=C(Cn1c2c(c3cc(C)ccc31)C1CCN(C2)C1)c1ccc(F)cc1` (centres unmarked) [Compound 3], the inhibition at 1 µM was 93% in assay [1], 97% in assay [2], 59% in assay [3] and 12% in assay [4]. Further, in assay [3] (1 µM), the “Percentage Inhibition, Histamine Binding (1 μM) H1” value stood at 60%. Also, the “Percent Inhibition of ligand binding, Dopamine (1 μM ligand conc.) D2L” value in assay [4] was 21%.
In the case of `Cc1ccc2c(c1)c1c(n2CC(O)c2ccc(F)cc2)CN2CCC1C2` (centres unmarked) [Compound 31], the inhibition at 1 µM in assay [1] amounted to 79%; in assay [2], 46%; in assay [3], 42%; in assay [4], 2%.
The corresponding values for `Cc1ccc2c(c1)c1c(n2CC(C)(O)c2ccc(F)c(Cl)c2)CN2CCC1C2` (centres unmarked) [Compound 18] are 107%, 87%, 21% and -1%.
For `Cc1ccc2c(c1)c1c(n2CC(=O)c2ccc(F)cc2)CN2CCC1C2` (centres unmarked) [Compound 28], the inhibition at 1 µM was determined as 45% in assay [1], 83% in assay [2], 64% in assay [3] and 1% in assay [4].
For the compound `Cc1ccc2c(c1)c1c(n2CC(=O)c2ccccc2)CN2CCC1C2` (centres unmarked) [Compound 21], the inhibition at 1 µM in assay [1] was 20%; in assay [2] it was -4%; in assay [3], 40%; in assay [4], -2%.
The corresponding values for `Cc1ccc2c(c1)c1c(n2CC(C)(O)c2ccc(F)cc2)CN2CCC1C2` (centres unmarked) [Compound 2] are 84%, 57%, 21% and 7%.
The matching figures for `Cc1ccc2c(c1)c1c(n2CC(=O)N2CCOCC2)CN2CCC1C2` (centres unmarked) [Compound 26]: 7%, 20%, 17% and 10%.
The corresponding values for `COc1ccc(C(O)Cn2c3c(c4cc(C)ccc42)C2CCN(C3)C2)cc1OC` (centres unmarked) [Compound 8] are 34%, 12%, 33% and -16%.
For `Cc1ccc2c(c1)c1c(n2CCc2ccc(C(F)(F)F)nc2)CN2CCC1C2` (centres unmarked) [Compound 1], the inhibition at 1 µM in assay [1] stood at 7%; in assay [2], 10%; in assay [3] it was 32%; in assay [4], 8%.
The matching figures for `Cc1ccc2c(c1)c1c(n2CC(=O)c2ccc(Cl)cc2)CN2CCC1C2` (centres unmarked) [Compound 29]: 58%, 74%, 56% and 0%.
The matching figures for `Cc1ccc2c(c1)c1c(n2CC(C)(O)c2ccc(Cl)c(Cl)c2)CN2CCC1C2` (centres unmarked) [Compound 13]: 99%, 83%, 24% and -2%.
